Legend:
diabetic animals [1] = test: Long-term effect on fasting blood glucose over 28 days; type: in vivo, rats; conditions: standard insulin treated group
pancreatic tissue = test: Histopathological evaluation of pancreas (H&E); type: in vivo; conditions: diabetic rats, after treatment
Text: After treatment, the organs (liver and pancreas) of the rats were collected for histopathological evaluation. […] To collect the tissue at the end of the treatment time, animals were sacrificed under anesthetic conditions. These tissues were washed with phosphate-buffered saline (PBS) and fixed in 10% formalin (Tissue processing station-Tissue Teck VIP 5). The collected samples were properly stored under normal room temperature and were cut/sliced using a semiautomated microtome (Accu-Cut SRM system) into a few small pieces of 3-5 mm from each sample tissue and were separately embedded in paraffin blocks. These sliced tissues were mounted on the glass slides and were properly fixed on the glass slide with a hot plate. After this xylene was used to remove the paraffin from the tissues and was rehydrated by using a series of graded ethanol dilutions, 100%, 90%, and 70%. The rehydrated tissue sections were stained with hematoxylin and eosin (H&E) and were examined using light microscopy to determine the architecture and proportions of islet and acinar cells in the pancreas and hepatocytes in the liver. […] In the control group, acinar and islet cells are seen in the pancreas in normal proportions. The acinar cells are arranged in lobules and are stained darkly with prominent nuclei. The islet cells are embedded within the acinar cells and surrounded by a fine capsule (FIG. 19A). […]

diabetic animals [2] = test: Non fasting blood glucose levels during 28 days; type: in vivo, rats; conditions: standard insulin group
Protocol: Non fasting blood glucose levels were measured for all the groups during the 28 days.

liver tissue = test: Histopathological evaluation of liver (H&E); type: in vivo; conditions: diabetic rats, after treatment
Text: After treatment, the organs (liver and pancreas) of the rats were collected for histopathological evaluation. […] To collect the tissue at the end of the treatment time, animals were sacrificed under anesthetic conditions. These tissues were washed with phosphate-buffered saline (PBS) and fixed in 10% formalin (Tissue processing station-Tissue Teck VIP 5). The collected samples were properly stored under normal room temperature and were cut/sliced using a semiautomated microtome (Accu-Cut SRM system) into a few small pieces of 3-5 mm from each sample tissue and were separately embedded in paraffin blocks. These sliced tissues were mounted on the glass slides and were properly fixed on the glass slide with a hot plate. After this xylene was used to remove the paraffin from the tissues and was rehydrated by using a series of graded ethanol dilutions, 100%, 90%, and 70%. The rehydrated tissue sections were stained with hematoxylin and eosin (H&E) and were examined using light microscopy to determine the architecture and proportions of islet and acinar cells in the pancreas and hepatocytes in the liver. […] These cords of hepatocytes are separated by narrow intervening sinusoids lined by endothelial cells and Kupffer cells. No inflammatory cells are seen (FIG. 20A).

[3] = Body weight during 28 days; parameters: species or system rats; conditions: rat, in vivo

Substance: standard insulin: standard insulin dose used as the comparison treatment group in diabetic rats
- Fasting blood glucose level, initial (diabetic animals [1]): 433 mg/dL
- Fasting blood glucose level, reduced (diabetic animals [1]; p=<0.001): 371 mg/dL
- Pancreatic histology (pancreatic tissue): the pancreatic histology is similar to that of the diabetic control
- Non fasting blood glucose level at day 1 (diabetic animals [2]): 487 mg/dL
- Non fasting blood glucose level at day 28 (diabetic animals [2]): 371 mg/dL
- Liver histology (liver tissue): the liver histology shows mostly a normal lobular architecture with normal cords of hepatocytes with intervening patent sinusoids with focal congestion with only occasional hepatocytes showing degenerative changes and no inflammation is seen
- Body weight at day 28 compared to the weight at day 21 [3]: significant (p=<0.001) improvement
- Improvement in body weight compared to diabetic control group [3]: significant (p=<0.0001)

Reference: patent US12280125B2 (Imam Abdulrahman Bin Faisal University, priority 2022, dated 2025)
